Among the data in patent US12528790B2, “Amide derivative having antiviral activity” (Shionogi & Co., Ltd., priority 2020, dated 2026) are EC50 values, retold here.

Where two headings read alike, the source gives them in different places. A value given as a limit tells only on which side of the number the result lay.

Test [1] has as its system RSV B (Wash/18537 strain). In words: In vitro CPE (CytoPathic Effect) inhibition effect evaluation test, RSV type B. Format: cell-based. An outline of the steps:
(§1)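 EC50 is the concentration giving 50% inhibition of virus-induced cytopathic effect, fitted by nonlinear regression from CellTiter-Glo 2.0 viability. Compounds in 3-fold series were co-incubated at 37 °C with HEp-2 cells and RSV: A2 strain for 4 days, B (Wash/18537) for 5 days; uninfected wells served as control.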

In test [2] the test system is RSV A2 strain. The test can be described thus: In vitro CPE (CytoPathic Effect) inhibition effect evaluation test, RSV type A. It is filed as cell-based. A digest of the protocol:
as §1

Setting [3] is: human respiratory syncytial virus, inhibitory effect against RSV type B, CPE inhibition, read-out: EC50.
[4] abbreviates: human respiratory syncytial virus, inhibitory effect against RSV type A (RSV A2 strain), HEp-2 cells, CPE inhibition, read-out: EC50.
Setting [5] is: inhibitory effect against RSV type B, CPE inhibition, read-out: EC50.
The mark [6] stands for this setting: inhibitory effect against RSV type A (RSV A2 strain), HEp-2 cells, CPE inhibition, read-out: EC50.

Take `Cc1nc(N2CCc3cc(OCCC4CCOCC4)ccc32)nc(C(F)(F)F)c1C(=O)NC1(C(=O)O)CCCCC1` [Compound I-72]: the values for the EC50 in test [1] (setting [3]) and in test [2] (setting [4]) were 100 to 5000 nM and less than 10 nM, respectively.

Consider `COC1(C)CCC(Oc2ccc3c(-c4ncc(C(=O)NC5(C(=O)O)C6CC7CC(C6)CC5C7)c(C(F)(F)F)n4)cn(C4CCC(F)(F)CC4)c3c2)CC1` (centres unmarked) [Compound I-445], for which the EC50 in test [1] (setting [3]) and in test [2] (setting [4]) was less than 10 nM in each case.

Take `CC(F)(F)c1nc(N2CC3(CCCCC3)c3cc(O[C@H]4CC[C@H](N5CC(F)(F)C5)CC4)ncc32)ncc1C(=O)N[C@]1(C(=O)O)[C@@H]2CC3C[C@H]1C[C@@](F)(C3)C2` [Compound I-556]: the figures for the EC50 in test [1] (setting [3]) and in test [2] (setting [4]) were 10 to 100 nM and less than 10 nM, respectively.

With `O=C(NC1(C(=O)O)C2CC3CC(C2)CC1C3)c1cnc(N2CC3(CCCCC3)c3cc(OC4CCN(c5ncc(F)cn5)CC4)ncc32)nc1C(F)(F)F` (centres unmarked) [Compound I-558], the EC50 in test [1] (setting [3]) and in test [2] (setting [4]) was less than 10 nM each time.

Take `CC(F)(F)c1nc(N2CC3(CCCCC3)c3cc(OC4CCN(c5ncc(F)cn5)CC4)ccc32)ncc1C(=O)NC1(C(=O)O)C2CC3CC(C2)CC1C3` (centres unmarked) [Compound I-396]: the EC50 in test [1] (setting [3]) and in test [2] (setting [4]) was less than 10 nM in each case.

Regarding `CC(F)(F)c1nc(-c2cn(C3CCC(F)(F)CC3)c3cc(O[C@H]4C[C@@H](N5CC(F)(F)C5)C4)ccc23)ncc1C(=O)NC1(C(=O)O)C2CC3CC(C2)CC1C3` (single isomer, unassigned) [Compound I-619], the EC50 in test [1] (setting [3]) and in test [2] (setting [4]) was less than 10 nM in each case.

As for `O=C(NC1(C(=O)O)C2CC3CC(C2)CC1C3)c1cnc(N2CC3(CCCCC3)c3cc(CN4CCN(c5ncccn5)CC4)ccc32)nc1C(F)(F)F` (centres unmarked) [Compound I-463], the EC50 in test [1] (setting [3]) was 100 to 5000 nM; in test [2] (setting [4]), less than 10 nM.

With `CC(F)(F)c1nc(N2CC3(CCCCC3)c3cc(C(=O)N4CCN(CC(F)(F)F)CC4)ccc32)ncc1C(=O)NC1(C(=O)O)C2CC3CC(C2)CC1C3` (centres unmarked) [Compound I-608], the EC50 in test [1] (setting [3]) and in test [2] (setting [4]) was less than 10 nM throughout.

With `O=C(NC1(C(=O)O)CCCCC1)c1cnc(N2CC3(CCOCC3)c3cc(OC4CCN(c5ncccn5)CC4)ccc32)nc1C(F)(F)F` [Compound I-81], the EC50 in test [1] (setting [3]) and in test [2] (setting [4]) was less than 10 nM in each case.

Turning to `O=C(NC1(C(=O)O)C2CC3CC(C2)CC1C3)c1ccc(-c2cn(C3CCOCC3)c3cc(OC4CCN(c5ncccn5)CC4)ccc23)nc1C(F)(F)F` (centres unmarked) [Compound I-147], the EC50 in test [1] (setting [3]) and in test [2] (setting [4]) was less than 10 nM each time.

For `O=C(NC1(C(=O)O)C2CC3CC(C2)CC1C3)c1cnc(N2CC3(CCCCC3)c3cc(OC4CCN(CC(F)(F)F)C4)ccc32)nc1C(F)(F)F` (centres unmarked) [Compound I-517], the EC50 in test [1] (setting [3]) is 10 to 100 nM; in test [2] (setting [4]) it was less than 10 nM.

For `CC(F)(F)c1nc(N2CC3(CCOCC3)c3cc(-n4ncc5c4CCN(CC(F)(F)F)C5)ccc32)ncc1C(=O)NC1(C(=O)O)C2CC3CC(C2)CC1C3` (centres unmarked) [Compound I-596], the EC50 in test [1] (setting [3]) and in test [2] (setting [4]) was less than 10 nM each time.

In the case of `COc1cccc(COc2ccc3c(c2)CCN3c2ncc(C(=O)NC3(C(=O)O)CC4CCC3C4)c(C(F)(F)F)n2)c1` (single isomer, unassigned) [Compound I-16], the results for the EC50 in test [1] (setting [3]) and in test [2] (setting [4]) were 10 to 100 nM and less than 10 nM, respectively.

`O=C(NC1(C(=O)O)C2CC3CC(C2)CC1C3)c1cnc(-c2cn(C3CCC(F)(F)CC3)c3cc(OC4CCN(C5COC5)CC4)ccc23)nc1C(F)(F)F` (centres unmarked) [Compound I-234]: the EC50 in test [1] (setting [3]) was 10 to 100 nM; in test [2] (setting [4]) it was less than 10 nM.

Take `COc1ccc2c(n1)C1(CCOCC1)CN2c1ncc(C(=O)NC2(C(=O)O)C3CC4CC(C3)CC2C4)c(C(F)(F)F)n1` (centres unmarked) [Compound I-91]: the EC50 in test [1] (setting [5]) is 10 to 100 nM; in test [2] (setting [6]), less than 10 nM.

Turning to `O=C(NC1(C(=O)O)C2CC3CC(C2)CC1C3)c1ccc(-c2cn(C3CCC(F)(F)CC3)c3cc(OC4CCN(c5ncccn5)CC4)c(F)cc23)nc1C(F)(F)F` (centres unmarked) [Compound I-221], the results for the EC50 in test [1] (setting [3]) and in test [2] (setting [4]) were 100 to 5000 nM and less than 10 nM, respectively.

`COC1CCC(n2cc(-c3ncc(C(=O)NC4(C(=O)O)C5CC6CC(C5)CC4C6)c(C(F)(F)F)n3)c3ccc(OC4CCN(c5ncc(F)cn5)CC4)cc32)CC1` (single isomer, unassigned) [Compound I-423]: the EC50 in test [1] (setting [3]) and in test [2] (setting [4]) was less than 10 nM each time.

For `COCCCOc1ccc2c(c1)CCN2c1ncc(C(=O)NC2(C(=O)O)CCCCC2)c(C(F)(F)F)n1` [Compound I-7], the half-maximal effective concentration (EC50) in test [1] (setting [3]) was in the range of 100 to 5000 nM; in test [2] (setting [4]), 10 to 100 nM.

As for `O=C(NC1(C(=O)O)C2CC3CC(C2)CC1C3)c1cnc(N2CC3(CCOC3)c3cc(OC4CCN(c5ncccn5)CC4)ccc32)nc1C(F)(F)F` (racemic) [Compound I-257], the EC50 in test [1] (setting [3]) and in test [2] (setting [4]) was less than 10 nM each time.

With `Cn1ncc2c1CCC(Oc1ccc3c(c1)C1(CCOCC1)CN3c1ncc(C(=O)NC3(C(=O)O)C4CC5CC(C4)CC3C5)c(C(F)(F)F)n1)C2` (single isomer, unassigned) [Compound I-190], the EC50 in test [1] (setting [3]) and in test [2] (setting [4]) was less than 10 nM each time.

In the case of `O=C(NC1(C(=O)O)C2CC3CC(C2)CC1C3)c1cnc(-c2cn(C3CCC(F)(F)CC3)c3cc(OC4CC(N5CC(F)(F)C5)C4)ccc23)nc1C(F)(F)F` (single isomer, unassigned) [Compound I-412], the results for the EC50 in test [1] (setting [3]) and in test [2] (setting [4]) were 10 to 100 nM and less than 10 nM, respectively.

On to `CC(=O)N1CC(N2CCC(Oc3ccc4c(c3)C3(CCCCC3)CN4c3ncc(C(=O)NC4(C(=O)O)C5CC6CC(C5)CC4C6)c(C(F)(F)F)n3)CC2)C1` (centres unmarked) [Compound I-492], for which the EC50 is 10 to 100 nM in test [1] (setting [3]) and less than 10 nM in test [2] (setting [4]).

As for `O=C(NC1(C(=O)O)C2CC3CC(C2)CC1C3)c1ccc(-c2cn(C3CCC(F)CC3)c3cc(O[C@H]4CC[C@H](N5CC(F)(F)C5)CC4)ccc23)nc1C(F)(F)F` (single isomer, unassigned) [Compound I-579], the EC50 in test [1] (setting [3]) and in test [2] (setting [4]) was less than 10 nM each time.

On to `O=C(NC1(C(=O)O)C2CC3CC(C2)CC1C3)c1cnc(N2CC3(CCCC3)c3cc(OC4CCN(CC(F)(F)F)CC4)ccc32)nc1C(F)(F)F` (centres unmarked) [Compound I-474], for which the concentration for a half-maximal effect (EC50) is 10 to 100 nM in test [1] (setting [3]) and less than 10 nM in test [2] (setting [4]).

Turning to `O=C(NC1(C(=O)O)C2CC3CC(C2)CC1C3)c1cnc(-c2nn(C3CCOCC3)c3cc(OC4CCN(c5ncccn5)CC4)ccc23)nc1C(F)(F)F` (centres unmarked) [Compound I-159], the EC50 in test [1] (human respiratory syncytial virus, HEp-2, 120 h, HEp-2 cells, RSV B (Wash/18537 strain), 5 days, CellTiter-Glo, read-out: EC50, inhibitory effect against RSV type B (CPE inhibition)) stood at 3 nM; in test [2] (human respiratory syncytial virus, HEp-2, 96 h, read-out: EC50, inhibitory effect against RSV type A (CPE inhibition)), 0.88 nM.

With `O=C(NC1(C(=O)O)C2CC3CC(C2)CC1C3)c1cnc(-c2cn(C3CCC(F)(F)CC3)c3cc(OC4CCC(OC5CC5)CC4)ccc23)nc1C(F)(F)F` (single isomer, unassigned) [Compound I-478], the EC50 in test [1] (setting [3]) and in test [2] (setting [4]) was less than 10 nM throughout.

`N#CCCCCOc1ccc2c(c1)CCN2c1ncc(C(=O)NC2(C(=O)O)CCCCC2)c(C(F)(F)F)n1` [Compound I-5]: the EC50 lay within 100 to 5000 nM in test [1] (setting [3]) and 10 to 100 nM in test [2] (setting [4]).

As for `CC(F)(F)c1nc(N2CC3(CCOCC3)c3cc(OC4CCN(c5ncc(F)cn5)CC4)ncc32)ncc1C(=O)NC1(C(=O)O)C2CC3CC(C2)CC1C3` (centres unmarked) [Compound I-503], the EC50 in test [1] (setting [3]) and in test [2] (setting [4]) was less than 10 nM throughout.

For `CC(F)(F)c1nc(N2CC3(CCOCC3)c3cc(OC4CCN(c5ncc(F)cn5)CC4)ncc32)ncc1C(=O)N[C@]1(C(=O)O)[C@@H]2CC3C[C@H]1C[C@@](F)(C3)C2` [Compound I-599], the EC50 in test [1] (setting [3]) and in test [2] (setting [4]) was less than 10 nM in each case.

On to `O=C(NC1(C(=O)O)C2CC3CC(C2)CC1C3)c1cnc(N2CC3(CCCCC3)c3cc(OC4CCN(c5cnccn5)CC4)ccc32)nc1C(F)(F)F` (centres unmarked) [Compound I-523], for which the EC50 in test [1] (setting [3]) and in test [2] (setting [4]) was less than 10 nM each time.

In the case of `COC1CC(n2cc(-c3ccc(C(=O)NC4(C(=O)O)C5CC6CC(C5)CC4C6)c(C(F)(F)F)n3)c3ccc(OC4CCN(c5ncccn5)CC4)cc32)C1` (centres unmarked) [Compound I-250], the EC50 in test [1] (setting [3]) and in test [2] (setting [4]) was less than 10 nM in each case.

Consider `CC(F)(F)c1nc(N2CC3(CC3)c3cc(O[C@H]4CC[C@H](N5CC(F)(F)C5)CC4)ccc32)ncc1C(=O)NC1(C(=O)O)C2CC3CC(C2)CC1C3` (some centres unmarked) [Compound I-597], for which the EC50 in test [1] (setting [3]) and in test [2] (setting [4]) was less than 10 nM throughout.

As for `O=C(NC1(C(=O)O)C2CC3CC(C2)CC1C3)c1cnc(N2CC3(CCCCC3)c3cc(O[C@@H]4CCN(c5ncc(F)cn5)C4)ccc32)nc1C(F)(F)F` (some centres unmarked) [Compound I-525], the EC50 in test [1] (setting [3]) and in test [2] (setting [4]) was less than 10 nM in each case.

On to `O=C(NC1(C(=O)O)C2CC3CC(C2)CC1C3)c1cnc(N2CC3(CCOCC3)c3cc(OC4CCN(C5COC5)CC4)ccc32)nc1C(F)(F)F` (centres unmarked) [Compound I-184], for which the EC50 in test [1] (setting [3]) and in test [2] (setting [4]) was less than 10 nM throughout.

On to `CC(F)(F)c1nc(N2CC3(CCCCC3)c3cc(O[C@H]4CC[C@H](n5ccnn5)CC4)ccc32)ncc1C(=O)NC1(C(=O)O)C2CC3CC(C2)CC1C3` (some centres unmarked) [Compound I-563], for which the EC50 in test [1] (setting [3]) and in test [2] (setting [4]) was less than 10 nM throughout.

As for `O=C(NC1(C(=O)O)C2CC3CC(C2)CC1C3)c1cnc(-c2cn(C3CCC(F)(F)CC3)c3cc(OC4CCN(c5ncccn5)CC4)ccc23)nc1C(F)(F)F` (centres unmarked) [Compound I-239], the half-maximal effective concentration (EC50) in test [1] (setting [3]) and in test [2] (setting [4]) was less than 10 nM each time.

Regarding `O=C(NC1(C(=O)O)C2CC3CC(C2)CC1C3)c1cnc(N2CC3(CCOCC3)c3cc(C(=O)N4CCN(c5ncccn5)CC4)ccc32)nc1C(F)(F)F` (centres unmarked) [Compound I-353], the EC50 in test [1] (setting [5]) and in test [2] (setting [6]) was less than 10 nM in each case.
